From the supplement of paper PMC8617591

Columns and labels:
[1] = system: Mycobacterium tuberculosis Erdman (autoluminescent); experiment: FIC90 (Loewe) at 90% inhibition (log2); higher = more antagonistic
Method: (§1)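 DiaMOND equipotent two-drug combination dose responses against autoluminescent M. tuberculosis Erdman in 8 in vitro models. Read-out is OD600, or luminescence for the intracellular and dormancy models, normalised to untreated wells. Hill-fit Einf, AUC25 and GRinf are potency metrics; FIC50 and FIC90 are Loewe-additivity fractional inhibitory concentrations, given as log2 (negative = synergy). Replicates are averaged.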

[2] = system: Mycobacterium tuberculosis Erdman (autoluminescent); experiment: FIC50 (Loewe) at 50% inhibition (log2); higher = more antagonistic
Method: as §1

[3] = system: Mycobacterium tuberculosis Erdman (autoluminescent); experiment: Einf, fitted maximum growth inhibition of combination (fraction); higher = stronger maximal inhibition
Method: as §1

[4] = system: Mycobacterium tuberculosis Erdman (autoluminescent); experiment: AUC25, normalised area under dose response up to IC25 (fraction (0-1)); higher = more potent at low dose
Method: as §1

[5] = system: Mycobacterium tuberculosis Erdman (autoluminescent); experiment: GRinf, maximum normalised growth rate inhibition (unitless (-1 to 1)); higher = less effect (negative = killing)
Method: as §1

CC(C)/N=c1\cc2n(-c3ccc(Cl)cc3)c3ccccc3nc-2cc1Nc1ccc(Cl)cc1 [clofazimine] + CC(=O)NC[C@H]1CN(c2ccc(N3CCOCC3)c(F)c2)C(=O)O1 [linezolid]
Conditions | AUC25, [4] | Einf, [3] | FIC50, [2] | FIC90, [1] | GRinf, [5]
in vitro model: acidic pH 5.7, time point: constant (~7 days, model-specific) | 0.0778 | 0.864 | 0.346 | – | -0.00597
in vitro model: acidic pH 5.7, time point: terminal (~4-5 doublings, model-specific) | 0.111 | 0.973 | 0.329 | 0.0194 | -0.305
in vitro model: intracellular J774, time point: constant = terminal | – | 0.855 | – | 0.457 | -0.0533

Conditions | AUC25, [4] | Einf, [3] | FIC50, [2] | FIC90, [1] | GRinf, [5]
in vitro model: butyrate, time point: constant (~7 days, model-specific) | 0.113 | 0.957 | 0.573 | 0.875 | -0.158
in vitro model: butyrate, time point: terminal (~4-5 doublings, model-specific) | 0.0908 | 0.98 | 0.626 | 0.85 | -0.142
in vitro model: cholesterol 0.05 mM, time point: constant (~7 days, model-specific) | 0.152 | 0.747 | -0.262 | – | -0.0419
in vitro model: cholesterol 0.05 mM, time point: terminal (~4-5 doublings, model-specific) | 0.164 | 0.951 | -0.033 | 1.4 | -0.35
in vitro model: cholesterol-high 0.2 mM, time point: constant (~7 days, model-specific) | 0.131 | 0.917 | 0.143 | 1.38 | -0.536
in vitro model: cholesterol-high 0.2 mM, time point: terminal (~4-5 doublings, model-specific) | 0.133 | 0.994 | -0.317 | 0.449 | -0.854
in vitro model: dormancy (butyrate + nitrate, low O2), time point: constant (~7 days, model-specific) | 0.0454 | 0.901 | 1.67 | 0.93 | 0.239
in vitro model: dormancy (butyrate + nitrate, low O2), time point: terminal (~4-5 doublings, model-specific) | 0.0463 | 0.981 | 1.05 | 0.839 | -0.123
in vitro model: standard 7H9 glycerol, time point: constant = terminal | 0.117 | 0.979 | 0.286 | 0.696 | -0.276
in vitro model: valerate, time point: constant (~7 days, model-specific) | 0.148 | 0.925 | -0.104 | 0.827 | -0.186
in vitro model: valerate, time point: terminal (~4-5 doublings, model-specific) | 0.0982 | 0.944 | 0.165 | 0.597 | -0.107

CC(C)/N=c1\cc2n(-c3ccc(Cl)cc3)c3ccccc3nc-2cc1Nc1ccc(Cl)cc1 [clofazimine] + CC[C@@H](CO)NCCN[C@@H](CC)CO [ethambutol]
Conditions | AUC25, [4] | Einf, [3] | FIC50, [2] | FIC90, [1] | GRinf, [5]
in vitro model: acidic pH 5.7, time point: constant (~7 days, model-specific) | 0.101 | 0.702 | 0.298 | – | 0.0851
in vitro model: acidic pH 5.7, time point: terminal (~4-5 doublings, model-specific) | 0.0812 | 0.937 | 0.474 | 0.294 | -0.228
in vitro model: intracellular J774, time point: constant = terminal | – | 1 | – | -0.448 | -0.789

Conditions | AUC25, [4] | Einf, [3] | FIC50, [2] | FIC90, [1] | GRinf, [5]
in vitro model: butyrate, time point: constant (~7 days, model-specific) | 0.0939 | 0.947 | 0.311 | – | -0.0791
in vitro model: butyrate, time point: terminal (~4-5 doublings, model-specific) | 0.0809 | 0.975 | 0.299 | 0.104 | -0.0975
in vitro model: cholesterol 0.05 mM, time point: constant (~7 days, model-specific) | 0.13 | 0.635 | 0.526 | – | -0.0623
in vitro model: cholesterol 0.05 mM, time point: terminal (~4-5 doublings, model-specific) | 0.137 | 0.854 | 0.199 | – | -0.424
in vitro model: cholesterol-high 0.2 mM, time point: constant (~7 days, model-specific) | 0.089 | 0.983 | 0.491 | – | -0.666
in vitro model: cholesterol-high 0.2 mM, time point: terminal (~4-5 doublings, model-specific) | 0.0861 | 0.999 | 0.255 | 0.466 | -0.935
in vitro model: dormancy (butyrate + nitrate, low O2), time point: constant (~7 days, model-specific) | 0.0731 | 0.788 | -0.136 | – | 0.516
in vitro model: dormancy (butyrate + nitrate, low O2), time point: terminal (~4-5 doublings, model-specific) | 0.114 | 0.967 | 0.277 | 0.818 | -0.0829
in vitro model: standard 7H9 glycerol, time point: constant = terminal | 0.111 | 0.963 | -0.113 | 0.12 | -0.234
in vitro model: valerate, time point: constant (~7 days, model-specific) | 0.144 | 0.899 | 0.000309 | – | -0.321
in vitro model: valerate, time point: terminal (~4-5 doublings, model-specific) | 0.0819 | 0.913 | 0.0811 | -0.728 | -2.83e-05

CC(C)/N=c1\cc2n(-c3ccc(Cl)cc3)c3ccccc3nc-2cc1Nc1ccc(Cl)cc1 [clofazimine] + CO[C@H]1/C=C/O[C@@]2(C)Oc3c(C)c(O)c4c(O)c(c(/C=N/N5CCN(C6CCCC6)CC5)c(O)c4c3C2=O)NC(=O)/C(C)=C\C=C\[C@H](C)[C@H](O)[C@@H](C)[C@@H](O)[C@@H](C)[C@H](OC(C)=O)[C@@H]1C [rifapentine]
Conditions | AUC25, [4] | Einf, [3] | FIC50, [2] | FIC90, [1] | GRinf, [5]
in vitro model: acidic pH 5.7, time point: constant (~7 days, model-specific) | 0.0913 | 0.879 | 0.0615 | 0.794 | -0.198
in vitro model: acidic pH 5.7, time point: terminal (~4-5 doublings, model-specific) | 0.0911 | 0.986 | -0.0081 | 0.123 | -0.304
in vitro model: intracellular J774, time point: constant = terminal | – | 0.988 | – | 0.278 | -0.308

Conditions | AUC25, [4] | Einf, [3] | FIC50, [2] | FIC90, [1] | GRinf, [5]
in vitro model: butyrate, time point: constant (~7 days, model-specific) | 0.112 | 0.95 | 0.36 | 0.54 | -0.0864
in vitro model: butyrate, time point: terminal (~4-5 doublings, model-specific) | 0.0945 | 0.986 | 0.279 | 0.504 | -0.0855
in vitro model: cholesterol 0.05 mM, time point: constant (~7 days, model-specific) | 0.137 | 0.651 | 1.24 | – | -0.17
in vitro model: cholesterol 0.05 mM, time point: terminal (~4-5 doublings, model-specific) | 0.111 | 0.887 | 1.3 | 1.44 | -0.127
in vitro model: cholesterol-high 0.2 mM, time point: constant (~7 days, model-specific) | 0.102 | 0.924 | 0.657 | 1.06 | -0.717
in vitro model: cholesterol-high 0.2 mM, time point: terminal (~4-5 doublings, model-specific) | 0.0885 | 0.996 | 0.714 | 0.543 | -0.813
in vitro model: dormancy (butyrate + nitrate, low O2), time point: constant (~7 days, model-specific) | 0.0864 | 0.932 | 0.121 | 0.16 | 0.0493
in vitro model: dormancy (butyrate + nitrate, low O2), time point: terminal (~4-5 doublings, model-specific) | 0.057 | 0.984 | 0.512 | 0.536 | -0.373
in vitro model: standard 7H9 glycerol, time point: constant = terminal | 0.1 | 0.967 | 0.18 | 0.35 | -0.11
in vitro model: valerate, time point: constant (~7 days, model-specific) | 0.136 | 0.885 | 0.297 | – | -0.112
in vitro model: valerate, time point: terminal (~4-5 doublings, model-specific) | 0.0746 | 0.918 | 0.0341 | 0.667 | 0.116
